Molecules are shown by their SMILES. Read-outs that look alike come from different tables or passages of the source.

One assay has as its target T1, human α-synuclein (Homo sapiens, UniProt P37840).
T1 construct: the full-length gene for untagged human α-synuclein was inserted; made in house; host or cells: E. coli BL21(DE3), plasmid derived from pT7 or pET11a
Description: Cell-free Thioflavin T assay of α-synuclein aggregation (αSyn ThT Assay). It counts as biochemical. The following applies: αSyn 50 μM. The procedure: To assess the effects of compounds on aggregation of α-synuclein, a cell-free assay was performed using purified α-synuclein and Thioflavin T. In the assay, human α-synuclein was expressed in E. coli BL21(DE3) from a plasmid derived from pT7 or pET11a into which the full-length gene for untagged human α-synuclein was inserted. Cells were induced at OD600 0.6 with 0.8 mM IPTG for 4 hours, harvested by centrifugation and suspended in a volume of lysis buffer (10 mM Tris, pH 8.0, 1 mM EDTA, and 1 mM PMSF) equivalent to one-tenth the volume of culture and lysed by boiling for 20 minutes. Cell debris was pelleted by centrifugation, clarified lysate was treated with 10% streptomycin sulfate at 136 μL/mL followed by glacial acetic acid at 228 μL/mL, lysate was centrifuged, supernatant was transferred to a fresh tube and protein was precipitated via addition of an equal volume of saturated (100%) ammonium sulfate and incubated at 4° C. on a rocking shaker for 1 hour. The protein was pelleted via centrifugation and washed with an equal volume of 100 mM ammonium acetate in chilled ethanol, pelleted via centrifugation, washed twice with chilled ethanol, dried overnight, resuspended in 50 mM potassium phosphate buffer pH 7.3 or 10 mM Tris pH 7.4, and passed through a 50 kDa cut-off column. Immediately prior to use, the purified α-synuclein was filtered with a 0.2 μm nylon filter. The assay was conducted in 96-well black microplates with a single 1-2 mm glass bead in each well, 20-40 μM ThioflavinT, 1% DMSO, α-synuclein at 50 μM and compounds at 20-100 μM. Plates were sealed with sealing tape (ThermoFisher 232701), incubated at 37° C. in a Tecan Nano F200 plate reader with excitation at 438 nm using a 439 nm filter with a bandwidth of 8 nm, and emission at 495 nm with a 490 nm filter with a bandwidth of 10 nm. During the assay, plates were shaken continuously or were shaken for 999 seconds every 18 minutes. Readings were performed hourly for up to 73 hours. The effect of compounds on α-synuclein aggregation in the assay was determined with data at 36, 47, 48 or 72 hours or from the final timepoint of the assay, prior to or roughly near the time when ThT fluorescence plateaued in the vehicle control wells. The vehicle controls contained all components of the assay except compounds and represented the level of α-synuclein aggregation in the absence of an inhibitor or accelerator. Fluorescence values for each compound with α-synuclein were first adjusted by subtracting the average fluorescence of the compound in the absence of α-synuclein. These adjusted values were normalized by dividing them by the average fluorescence at the same timepoint in the vehicle control wells, and the average normalized fluorescence with the compound was expressed as a percentage of the average fluorescence observed in untreated controls. Percent inhibition of α-synuclein aggregation by a compound was determined by subtracting the percent average fluorescence with the compound relative to the average vehicle control from 100%. A higher positive percent inhibition reflects greater inhibition of α-synuclein aggregation, while a negative percent inhibition reflects potentiation of α-synuclein aggregation.
Alternate concentrations of Thioflavin T may be used in the assay and may affect the fluorescent signal and sensitivity of the assay. Alternate concentrations of α-synuclein may be used and such alterations may affect aggregation kinetics of α-synuclein in the assay. Alternate concentrations of compounds may be tested in the assay, and dose-responses may be evaluated. Additional reagents may be added to the assay which may affect aggregation kinetics of α-synuclein depending on their concentration, including detergents such as sodium dodecyl sulfate, sodium chloride, dithiotreitol, or bovine serum albumin. Shaking may be included at alternate intervals in the assay and may affect α-synuclein aggregation kinetics. […]

The subject of assay [1] is CsgA gene expression (csgBAC promoter-GFP reporter) in E. coli UTI89. Description: In vitro live cell fluorescent reporter assay of CsgA transcription (Reporter Assay). It is filed as cell-based. The following applies: Escherichia coli. A digest of the protocol:
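Chromosomal single-copy csgBAC promoter–GFP reporter in E. coli UTI89, started at OD600 0.003 in YESCA broth with compound (0.14–100 μM, 1% DMSO), 20 h at 27 °C. GFP (ex 485/em 525 nm) background-subtracted and normalized to vehicle; IC50 and X[50] from curve fits. OD600 tracked growth effects.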
Background: Reporter assays use an easily measured gene product as a stand-in for the process of interest.

The target in a further assay is T2, E. coli CsgA (Escherichia coli, UniProt P28307).
T2 construct: made in house; host or cells: E. coli NEB 3016 slyD::kan, pET11d
Description: In vitro ThioflavinT assay of CsgA aggregation (CsgA ThT Assay). It is filed as biochemical. To be noted: for remaining activity at 25 µM: compound 25 μM; for remaining activity at 100 µM: compound 100 μM. The method in brief:
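Purified C-terminal His-tagged CsgA, monomerised by desalting and 30-kDa filtration, at 2-20 μM with 20-40 μM ThT in 50 mM potassium phosphate pH 7.3, 1% DMSO, compounds 3.125-200 uM; room temperature, fluorescence (ex 438/em 495 nm) read every 15 min. Background-subtracted signal expressed as percent inhibition versus vehicle at 6-6.5 or 8-9 h, or as percent control AUC.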

The mark [2] stands for this setting: mean % inhibition of αSyn aggregation relative to DMSO control, compounds at 100 μM, read-out: αSyn ThT Assay % Inhibition.
Where [3] appears, read: compounds at 100 μM, class symbol, read-out: αSyn ThT Assay % Inhibition (activity range).
[4] abbreviates: read-out: Reporter Assay Abs IC50 (μM), median Abs IC50 in the CsgA reporter assay, N/A = maximum expression reduction is <50% of control.
[5] abbreviates: read-out: CsgA ThT Assay (2 μM CsgA) % Control Bmax 25 μM, activity range, class symbol, CsgA 2 μM, white plates.
[6] abbreviates: read-out: CsgA ThT Assay (2 μM CsgA) % Control Bmax 25 μM, mean Bmax as percentage of DMSO control, CsgA 2 μM, white plates.
Setting [7] is: class symbol, compounds 100 μM, read-out: αSyn ThT Assay % inhibition, activity range.
Where [8] appears, read: mean percent inhibition relative to DMSO control, compounds 100 μM, read-out: αSyn ThT Assay % inhibition.
[9] abbreviates: read-out: CsgA ThT Assay (2 μM CsgA) % Control Bmax 100 μM, activity range, class symbol, CsgA 2 μM, white plates.
[10] abbreviates: read-out: CsgA ThT Assay (2 μM CsgA) % Control Bmax 100 μM, mean Bmax as percentage of DMSO control, CsgA 2 μM, white plates.

T2 sequence (P28307 23-151): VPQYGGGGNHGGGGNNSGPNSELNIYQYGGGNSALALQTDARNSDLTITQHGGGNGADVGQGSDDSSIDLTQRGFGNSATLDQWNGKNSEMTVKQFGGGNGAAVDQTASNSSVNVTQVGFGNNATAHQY

As for `O=C(O)C1CN(CCCCCCN2CC(C(=O)O)n3c(c(-c4cccc(C(F)(F)F)c4)c(Cc4cccc5ccccc45)cc3=O)S2(=O)=O)S(=O)(=O)c2c(-c3cccc(C(F)(F)F)c3)c(Cc3cccc4ccccc34)cc(=O)n21` (racemic) [Compound 043, 2,2′-(hexane-1,6-diyl)bis(8-(naphthalen-1-ylmethyl)-6-oxo-9-(3-(trifluoromethyl)phenyl)-3,4-dihydro-2H,6H-pyrido[1,2-e][1,2,5]thiadiazine-4-carboxylic acid 1,1-dioxide)], the inhibition at 100 µM on human α-synuclein (setting [2]) was 72%; at human α-synuclein (setting [3]), above 60%. Besides, the IC50 in assay [1] (read-out: Reporter Assay Abs IC50 (activity range), median Abs IC50 in the CsgA reporter assay, class symbol) is below 1.3 µM; in assay [1] (setting [4]), 0.7 µM.

For `CN1CC(C(=O)O)n2c(c(-c3cccc(C(F)(F)F)c3)c(Cc3ccc(NS(C)(=O)=O)c4ccccc34)cc2=O)S1(=O)=O` (stereo not drawn) [Compound 067], the remaining activity at 25 µM at E. coli CsgA (read-out: CsgA ThT Assay (10 μM CsgA) % Control AUC at 1005 minutes, 25 μM (activity range), CsgA 10 μM, black plates, 1005 minutes, class symbol) was above 60%; at E. coli CsgA (read-out: CsgA ThT Assay (10 μM CsgA) % Control AUC at 1005 minutes, 25 μM, mean AUC as % of DMSO control, CsgA 10 μM, black plates, 1005 minutes), 67%. Also, the remaining activity at 100 µM is 11 to 31% on E. coli CsgA (read-out: CsgA ThT Assay (10 μM CsgA) % Control AUC at 1005 minutes, 100 μM (activity range), CsgA 10 μM, black plates, 1005 minutes, class symbol) and 16% on E. coli CsgA (read-out: CsgA ThT Assay (10 μM CsgA) % Control AUC at 1005 minutes, 100 μM, mean AUC as % of DMSO control, CsgA 10 μM, black plates, 1005 minutes). Moreover, the inhibition at 100 µM is 35% at human α-synuclein (setting [2]) and 31 to 60% on human α-synuclein (setting [3]).

For `CCCN1CC(C(=O)O)n2c(c(-c3cccc(C(F)(F)F)c3)c(Cc3cccc4ccccc34)c(OC3CCCC3)c2=O)S1(=O)=O` (stereo not drawn) [Compound 144, 7-(cyclopentyloxy)-8-(naphthalen-1-ylmethyl)-6-oxo-2-propyl-9-(3-(trifluoromethyl)phenyl)-3,4-dihydro-2H,6H-pyrido[1,2-e][1,2,5]thiadiazine-4-carboxylic acid 1,1-dioxide], the figures for the remaining activity at 25 µM at E. coli CsgA (setting [5]) and on E. coli CsgA (setting [6]) were above 60% and 77%, respectively. Further, the inhibition at 100 µM on human α-synuclein (setting [7]) is 11 to 30%; on human α-synuclein (setting [8]), 29%.

Turning to `CCCN1CC(C(=O)O)n2c(c(-c3cccc(C(F)(F)F)c3)c(Cc3cccc4ccccc34)c(N3CCCC3=O)c2=O)S1(=O)=O` (stereo not drawn) [Compound 151, 8-(naphthalen-1-ylmethyl)-6-oxo-7-(2-oxopyrrolidin-1-yl)-2-propyl-9-(3-(trifluoromethyl)phenyl)-3,4-dihydro-2H,6H-pyrido[1,2-e][1,2,5]thiadiazine-4-carboxylic acid 1,1-dioxide], the remaining activity at 25 µM at E. coli CsgA (setting [5]) is above 60%; on E. coli CsgA (setting [6]), 67%. In addition, the figures for the remaining activity at 100 µM at E. coli CsgA (setting [9]) and on E. coli CsgA (setting [10]) were above 60% and 73%, respectively. Further, the inhibition at 100 µM at human α-synuclein (setting [7]) was above 60%; at human α-synuclein (setting [8]), 61%.

In the case of `CC(C)NC(=O)c1c(Cc2cccc3ccccc23)c(-c2cccc(C(F)(F)F)c2)c2n(c1=O)C(C(=O)O)CN(C)S2(=O)=O` (stereo not drawn) [Compound 157, 7-(isopropylcarbamoyl)-2-methyl-8-(naphthalen-1-ylmethyl)-6-oxo-9-(3-(trifluoromethyl)phenyl)-3,4-dihydro-2H,6H-pyrido[1,2-e][1,2,5]thiadiazine-4-carboxylic acid 1,1-dioxide], the results for the remaining activity at 25 µM at E. coli CsgA (setting [5]) and on E. coli CsgA (setting [6]) were above 60% and 81%, respectively. Also, the remaining activity at 100 µM was above 60% on E. coli CsgA (setting [9]) and 124% on E. coli CsgA (setting [10]). Besides, the inhibition at 100 µM at human α-synuclein (setting [7]) is above 60%; at human α-synuclein (setting [8]), 83%.

Turning to `CC(C)CNC(=O)c1c(Cc2cccc3ccccc23)c(-c2cccc(C(F)(F)F)c2)c2n(c1=O)C(C(=O)O)CN(C)S2(=O)=O` (stereo not drawn) [Compound 159, 7-(isobutylcarbamoyl)-2-methyl-8-(naphthalen-1-ylmethyl)-6-oxo-9-(3-(trifluoromethyl)phenyl)-3,4-dihydro-2H,6H-pyrido[1,2-e][1,2,5]thiadiazine-4-carboxylic acid 1,1-dioxide], the remaining activity at 25 µM on E. coli CsgA (setting [5]) is above 60%; at E. coli CsgA (setting [6]), 64%. In addition, the remaining activity at 100 µM was above 60% at E. coli CsgA (setting [9]) and 76% at E. coli CsgA (setting [10]). In addition, the results for the inhibition at 100 µM on human α-synuclein (setting [7]) and on human α-synuclein (setting [8]) were above 60% and 83%, respectively.

As for `N#Cc1ccccc1CN1CC(C(=O)O)n2c1c(-c1cccc(C(F)(F)F)c1)c(Cc1cccc3ccccc13)c(Cl)c2=O` (stereo not drawn) [Compound 165, 6-chloro-1-(2-cyanobenzyl)-7-(naphthalen-1-ylmethyl)-5-oxo-8-(3-(trifluoromethyl)phenyl)-1,2,3,5-tetrahydroimidazo[1,2-a]pyridine-3-carboxylic acid], the inhibition at 100 µM was 11 to 30% at human α-synuclein (setting [7]) and 30% at human α-synuclein (setting [8]). Besides, the IC50 in assay [1] (setting [4]) was 0.8 µM; in assay [1] (read-out: Reporter Assay Abs IC50, activity range, class symbol) it was below 1.3 µM.

For the molecule `COc1cccc(CN2CC(C(=O)O)n3c2c(-c2cccc(C(F)(F)F)c2)c(Cc2cccc4ccccc24)c(Cl)c3=O)c1` (stereo not drawn) [Compound 191, 6-chloro-1-(3-methoxybenzyl)-7-(naphthalen-1-ylmethyl)-5-oxo-8-(3-(trifluoromethyl)phenyl)-1,2,3,5-tetrahydroimidazo[1,2-a]pyridine-3-carboxylic acid], the remaining activity at 25 µM is 31 to 60% on E. coli CsgA (setting [5]) and 58% on E. coli CsgA (setting [6]). Besides, the remaining activity at 100 µM is 31 to 60% at E. coli CsgA (setting [9]) and 43% at E. coli CsgA (setting [10]). In addition, the inhibition at 100 µM at human α-synuclein (setting [7]) was 31 to 60%; on human α-synuclein (setting [8]), 55%.

What is called inhibition is the share of the control response that was lost under treatment. As a reminder, the IC50 is the concentration needed to halve the response being measured.

The values above are taken from US20230131899A1, “INHIBITORS OF MICROBIALLY INDUCED AMYLOID” (Axial Therapeutics, Inc., priority 2020, published 2023).
